Source: article PMC6272295, “In Vitro Neuroprotective Activities of Compounds from Angelica shikokiana Makino” (Molecules, 2015)
Where two headings read alike, the source gives them in different places.

Columns and labels:
[1] = target: T1, AChE from Electrophorus electricus (Electrophorus electricus, UniProt O42275); assay: biochemical
T1 construct: purchased Sigma (St. Louis, MO, USA)
Procedure: AChEI activity was measured using Ellman’s method. AChE hydrolyzes the substrate ACTI into acetate and thiocholine. In a neutral and alkaline medium; thiocholine reacts with DTNB to give yellow colored 2-nitro-5-thiobenzoate, which can be detected spectrophotometrically at 405 nm. Briefly, in a 96-well plate, 25 µL of 15 mM ACTI, 125 µL of 3 mM DTNB in buffer B (50 mM Tris HCl, pH = 8, 0.1 M NaCl, 0.02 M MgCl2·6H2O), 50 µL of buffer A (50 mM Tris-HCl, PH 8, 0.1% BSA) and 25 µL of tested sample (dissolved in 25% DMSO) were mixed, and the absorbance was measured using a microplate reader (Biotek, Winooski, VT, USA) at 405 nm every 16 s ten times. Then, 25 µL of AChE (0.25 U/mL in buffer A) was added and the absorbance was measured ten times every 16 s. A solution of 25% DMSO was used as a negative control. Absorbance was plotted against time and enzyme activity was calculated from the slope of the line so obtained and expressed as a percentage compared to an assay using a buffer without any inhibitor. Fractions were tested at 400 µg/mL. To avoid any increase in absorbance due to the color of the compounds or spontaneous hydrolysis of the substrate, the absorbance before addition of the enzyme was subtracted from the absorbance after adding the enzyme.
(§1) IC50 values of isolated compounds in AChEI and scavenging of hydroxyl radical assays were calculated using Probit Analysis (SPSS Version 16.0 for Windows, SPSS Inc., Chicago, IL, USA) for five different concentrations in three independent experiments. Cell viability was expressed as a percentage of MTT reduction, assuming that the viability of cells treated with 1% DMSO as a negative control was 100%. Figures were built in Microsoft Excel 2010. All values are the mean ± SD of three independent experiments. Data were analyzed for statistical significance using one-way ANOVA, followed by Dunnet’s test as a post-hoc test with GraphPad Prism 5.0 software for Windows (Inc., San Diego, CA, USA).

[2] = Scavenging of hydroxyl radical, 2-deoxyribose degradation assay; conditions: for % Inhibition of deoxyribose degradation, Site-Specific / % Inhibition of deoxyribose degradation, Non Site-Specific: 300 µM; for % Inhibition of deoxyribose degradation, Non Site-Specific: 25 min, pH 7.4
Procedure: The inhibitory effect of bioactive compounds on deoxyribose degradation was determined by measuring the competition between deoxyribose and bioactive compounds for the hydroxyl radicals (^.OH) generated from the Fe^3+/ascorbate/EDTA/H2O2 system (referred to non-site-specific assay; the major activity measured is ^.OH scavenging) or an Fe^3+/ascorbate/H2O2 system (referred to as a site-specific assay; major activity measured is metal chelation). Both assays depend on the formation of a highly reactive hydroxyl radical, OH, by the interaction of iron ions with H2O2 through Fenton’s reaction. […] This assay was performed as previously described. Different concentrations of tested compounds were dissolved in 400 µL phosphate buffer (0.2 M, pH 7.4). Then, 50 µL of deoxyribose (60 mM), 50 µL of Na2EDTA (2 mM), 50 µL of FeCl3 (3.2 mM), 50 µL of H2O2 (60 mM) and 50 µL of ascorbic acid (2 mM) were added, and the total volume of the reaction mixture was adjusted to 1 mL with buffer. After water-bath incubation at 50 °C for 25 min, the reaction was terminated by 250 µL of trichloroacetic acid (10%, w/w). […] For site-specific hydroxyl-radical-scavenging activity, the reaction mixture was similar to the above method, except that EDTA was replaced by an equivalent volume of buffer.
as §1, with “Figures were built in Microsoft Excel 2010.” left out

[3] = test system: neuro-2A cells; assay: Protection against H2O2-induced neurotoxicity (MTT); assay type: cell-based, Mouse; conditions: for Protection against H2O2: summary Table 4; for neuroprotection against H2O2-induced neurotoxicity (in words): 6.25-100 µM, H2O2 150 µM
Procedure: (§2) Neuro-2A cell line was maintained in Eagle’s Minimum Essential medium supplemented with 10% fetal bovine serum, 1% of 100× antibiotic—antimitotic agents (containing penicillin and streptomycin) in a humid atmosphere of 5% (v/v) CO2 and 95% (v/v) air at 37 °C. Neuro-2A cells were plated in 96-well cell culture plates at a density of 3 × 10^4 cells/well for H2O2 and intracellular ROS assays and 2.5 × 10^3 cells/well for the Aβ25-35-assay.
(§3) Cell viability was determined by MTT reduction assay. Briefly, after treatment with isolated compounds, the media was replaced by fresh one after washing the cells with 100 µL PBS and 20 µL of MTT (5 mg/mL) was added to each well. After 4 h incubation at 37 °C, the state of cells was checked under microscope to confirm either cytotoxicity in H2O2 and Aβ25-35 wells or protection in positive controls and isolated compounds ones. The supernatants were aspirated carefully, and 150 µL of DMSO was added to each well to dissolve the dark blue formazan crystals. The absorbance was measured using a microplate reader at 570 nm.
H2O2 interacts with metals in the medium, producing highly cytotoxic hydroxyl radicals that induce neurotoxicity. So, active compounds are those that can scavenge free radicals and increase the cell viability. This assay was performed as previously described with slight modifications. Briefly, the concentration of H2O2 that decreased cell viability to about 50% was determined as follows: cells were cultured in a 96-well plate and after 24 h were further incubated with different concentrations of H2O2 (50, 100, 150, 200 µM) freshly prepared from 30% stock solution. After 24 h, cell viability was determined using the MTT reduction method. H2O2 at a concentration of 150 µM had the desired cytotoxicity and was used for the next step.

[4] = test system: intracellular ROS in Neuro-2A cells; assay: Scavenging of intracellular reactive oxygen species (Bes-H2O2-AC, DFF fluorescence); assay type: cell-based, Mouse; conditions: for decrease of DFF fluorescence intensity (intracellular ROS): at 50 and 100 µM, H2O2 600 µM 30 min; for Intracellular ROS Scavenging: summary Table 4; for Intracellular ROS Scavenging: key: +: Weak activity; ++: Strong activity
Procedure: as §2
This assay was performed as previously described with some modifications. Briefly, Neuro-2A cells were seeded in 96-well Clear Fluorescence Black Plate (number 655090, Greiner Bio-one, Tokyo, Japan). Cells were treated with three different concentrations (25, 50, 100 µM) of the samples. After 2 h incubation, cells were subjected to oxidative stress using 600 µM of H2O2 for 30 min. The nucleus was stained by Hoechst 33342 (Dojindo, Kumamoto, Japan), and the amount of difluorofluorescein (DFF) released from the reaction of H2O2 and BES-H2O2-Ac was taken as an indication of the amount of intracellular H2O2 and ROS. Images of each well were acquired using an IN Cell Analyzer 1000 (GE Healthcare, Buckinghamshire, UK) using 360-nm (Hoechst 33342) and 480-nm (BES-H2O2-Ac) excitation filters and monitored through 460-nm and 535-nm emission filters, respectively. Developer software was used to analyze the images of Hoechst 33342 and BES-H2O2-Ac staining, and the resulting data were then applied to Spotfire Decision Site Client 8.2 software for visualizing the results.

[5] = test system: neuro-2A cells; assay: Protection against Aβ25-35-induced neurotoxicity (MTT); assay type: cell-based, Mouse; conditions: for neuroprotection against Aβ25-35 (in words): at the highest concentration (100 µM); for Protection against Aβ25-35: summary Table 4; for Protection against Aβ25-35: key: +: Weak activity; ++: Strong activity
Procedure: as §2, §3
Similarly, the concentration of Aβ25-35 that decreased cell viability to about 50% was determined. […] So, the cells were incubated with different concentrations of the isolated compounds (6.25, 12.5, 25, 50 and 100 µM) and EGCG as a positive control for 3 h followed by Aβ25-35 treatment for 72 h.

[6] = summary Table 4, read-out: AchEI IC50
[7] = Fe3+/ascorbate/EDTA/H2O2 system, read-out: IC50 hydroxyl radical scavenging, Non Site-Specific
[8] = Fe3+/ascorbate/H2O2 system without EDTA, read-out: IC50 hydroxyl radical scavenging, Site-Specific
[9] = Ellman's method, read-out: IC50 in the AChEI assay
[10] = summary Table 4 (values of the non site-specific assay), read-out: Hydroxyl Radical Scavenging/IC50

T1 sequence (O42275 24-633): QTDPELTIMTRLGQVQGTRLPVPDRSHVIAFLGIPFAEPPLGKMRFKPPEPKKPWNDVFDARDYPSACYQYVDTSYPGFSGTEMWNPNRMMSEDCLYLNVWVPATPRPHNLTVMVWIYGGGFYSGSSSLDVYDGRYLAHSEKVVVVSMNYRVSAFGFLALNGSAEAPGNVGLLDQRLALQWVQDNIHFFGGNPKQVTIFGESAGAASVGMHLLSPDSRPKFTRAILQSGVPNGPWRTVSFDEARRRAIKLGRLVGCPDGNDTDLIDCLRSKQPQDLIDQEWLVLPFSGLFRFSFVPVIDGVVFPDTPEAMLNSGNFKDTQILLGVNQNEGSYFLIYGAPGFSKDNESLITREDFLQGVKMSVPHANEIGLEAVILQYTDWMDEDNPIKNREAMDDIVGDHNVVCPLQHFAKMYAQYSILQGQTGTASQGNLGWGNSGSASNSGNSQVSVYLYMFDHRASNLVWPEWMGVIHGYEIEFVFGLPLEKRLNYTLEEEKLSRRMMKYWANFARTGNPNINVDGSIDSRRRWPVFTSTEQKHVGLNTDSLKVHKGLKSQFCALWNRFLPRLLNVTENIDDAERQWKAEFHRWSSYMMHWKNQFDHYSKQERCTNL

Compound | IC50 in the AChEI assay ([1]; Ellman's method) | IC50 [1, 6] [µM] | IC50 [2, 7] [µM] | IC50 [2, 8] [µM] | Protection against H2O2 [3] | decrease of DFF fluorescence intensity (intracellular ROS) [4] | Intracellular ROS Scavenging [4] | other results
O=Cc1ccc(CO)o1 [5-(Hydroxymethyl)-2-furaldehyde (7), 5-(hydroxymethyl)-2-furaldehyde] | inactive | > 500 |  |  |  |  |  | % Inhibition of deoxyribose degradation, Site-Specific [2]: -; % Inhibition of deoxyribose degradation, Non Site-Specific [2]: 4 ± 0.3%
Nc1ncnc2c1ncn2[C@@H]1O[C@H](CO)[C@@H](O)[C@H]1O [Adenosine (15), adenosine] | inactive | > 500 |  |  |  |  |  | 
Oc1cc(O)c2c(c1)OC(c1ccc(O)c(O)c1)C(O)C2 (centres unmarked) [Catechin (positive control), Catechin, reference compound] |  |  | 473 ± 8.6 | 534 ± 19.2 |  |  |  | 
O=C(/C=C/c1ccc(O)c(O)c1)O[C@@H]1C[C@](O)(C(=O)O)C[C@@H](O)[C@H]1O [Chlorogenic acid (11), chlorogenic acid] | inactive | > 500 |  |  | ++ | significantly decrease the fluorescence intensity | ++ | 
OO [H2O2, reference compound] |  |  |  |  |  |  |  | cytotoxicity of H2O2 ([3]; 150 µM H2O2, 24 h, MTT): 48.2% ± 1.8%
O=c1cc(-c2ccc(O)c(O)c2)oc2cc(O)cc(O)c12 [Luteolin (9), luteolin] |  | > 500 | 753 ± 11.1 | 980 ± 15.8 | ++ | significantly decrease the fluorescence intensity | ++ | IC50 [1, 9]: > 500 µM; inhibition at 250 µM ([1]; at 250 µM): 30%; IC50 [2, 10]: 753 ± 11.1 µM; neuroprotection against Aβ25-35 (in words) [5]: significant neuroprotection (p < 0.05); Protection against Aβ25-35 [5]: +
COC(=O)C1(O)CC(O)C(O)C(OC(=O)C=Cc2ccc(O)c(O)c2)C1 (centres unmarked) [Methyl chlorogenate (10), methyl chlorogenate] |  | > 500 | 840 ± 12.4 | 920 ± 10.9 | ++ | significantly decrease the fluorescence intensity | ++ | IC50 [1, 9]: > 500 µM; inhibition at 500 µM ([1]; at 500 µM): 10%; IC50 [2, 10]: 840 ± 12.4 µM
O=c1c(O)c(-c2ccc(O)c(O)c2)oc2cc(O)cc(O)c12 [Quercetin (12), quercetin] |  |  | 672 ± 10.6 | 837 ± 21.6 | ++ | significantly decrease the fluorescence intensity | ++ | IC50 [2, 10]: 672 ± 10.6 µM; neuroprotection against Aβ25-35 (in words) [5]: significant neuroprotection (p < 0.05); Protection against Aβ25-35 [5]: +
CC1(C)CCC2(C)CCC3(C)C4CC=C5C(CCC(O)C5(C)C)C4(C)CCC3(C)C2C1 (stereo not drawn) [α-Glutinol (1), α-glutinol] | inactive | > 500 |  |  |  |  |  | neuroprotection against H2O2-induced neurotoxicity (in words) [3]: did not show significant neuroprotection
CC1(C)CC[C@]2(C)CC[C@]3(C)C(=CC[C@@H]4[C@@]5(C)CC[C@H](O)C(C)(C)[C@@H]5CC[C@]43C)[C@@H]2C1 [β-Amyrin (2), β-amyrin] | inactive | > 500 |  |  |  |  |  | neuroprotection against H2O2-induced neurotoxicity (in words) [3]: did not show significant neuroprotection; % Inhibition of deoxyribose degradation, Site-Specific [2]: -; % Inhibition of deoxyribose degradation, Non Site-Specific [2]: -
CCC(CCC(C)C1CCC2C3CC=C4CC(OC5OC(CO)C(O)C(O)C5O)CCC4(C)C3CCC12C)C(C)C (stereo not drawn) [β-Sitosterol-3-O-glucoside (5), β-sitosterol-3-O-glucoside] | inactive | > 500 |  |  |  |  |  | 
Aβ25-35: amyloid β peptide fragment used to induce neurotoxicity (GSNKGAIIGLM; Amyloid-beta protein 42; UniProt P05067 696-706, looked up, fragment) [reference compound] |  |  |  |  |  |  |  | cytotoxicity of Aβ25-35 ([5]; 25 µM, 72 h incubation): 55% ± 4.6%
